Measured values published in PubChem BioAssay (NCI).
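1) Cells in 96-well plates. 2) Compound, 48 h, 5 concentrations. 3) Linear interpolation between surrounding doses. 4) Unreached endpoint = highest concentration. The concentration for full growth arrest is given as TGI.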

Legend:
Experiment in all cases: NCI-60 cell line screen, 48 h
NCI-H522 lung = tested on: NCI-H522 lung
MOLT-4 leukemia = tested on: MOLT-4 leukemia
OVCAR-3 ovarian = tested on: OVCAR-3 ovarian
SR leukemia = tested on: SR leukemia
HCT-116 colon = tested on: HCT-116 colon
MALME-3M melanoma = tested on: MALME-3M melanoma
SK-MEL-2 melanoma = tested on: SK-MEL-2 melanoma
HL-60(TB) leukemia = tested on: HL-60(TB) leukemia
UACC-257 melanoma = tested on: UACC-257 melanoma
HOP-92 NSCLC = tested on: HOP-92 NSCLC
RXF 393 renal = tested on: RXF 393 renal
DU-145 prostate = tested on: DU-145 prostate
T-47D breast = tested on: T-47D breast
KM12 colon = tested on: KM12 colon
HCT-15 colon = tested on: HCT-15 colon
HT29 colon = tested on: HT29 colon
SNB-19 CNS = tested on: SNB-19 CNS
MCF7 breast = tested on: MCF7 breast
SK-OV-3 ovarian = tested on: SK-OV-3 ovarian
SK-MEL-5 melanoma = tested on: SK-MEL-5 melanoma
UO-31 renal = tested on: UO-31 renal
EKVX NSCLC = tested on: EKVX NSCLC
SW-620 colon = tested on: SW-620 colon
BT-549 breast = tested on: BT-549 breast
HOP-62 NSCLC = tested on: HOP-62 NSCLC
CCRF-CEM leukemia = tested on: CCRF-CEM leukemia
ACHN renal = tested on: ACHN renal
SF-268 CNS = tested on: SF-268 CNS
MDA-N = tested on: MDA-N
MDA-MB-435 = tested on: MDA-MB-435
IGROV1 ovarian = tested on: IGROV1 ovarian
786-0 renal = tested on: 786-0 renal
NCI-H23 lung = tested on: NCI-H23 lung
OVCAR-8 ovarian = tested on: OVCAR-8 ovarian
HCC-2998 colon = tested on: HCC-2998 colon
NCI-H460 lung = tested on: NCI-H460 lung
A498 renal = tested on: A498 renal
LOX IMVI melanoma = tested on: LOX IMVI melanoma
SF-539 CNS = tested on: SF-539 CNS
NCI-H226 lung = tested on: NCI-H226 lung
K-562 leukemia = tested on: K-562 leukemia
SK-MEL-28 melanoma = tested on: SK-MEL-28 melanoma
M14 melanoma = tested on: M14 melanoma
SF-295 CNS = tested on: SF-295 CNS
RPMI-8226 leukemia = tested on: RPMI-8226 leukemia
NCI/ADR-RES ovarian = tested on: NCI/ADR-RES ovarian
OVCAR-5 ovarian = tested on: OVCAR-5 ovarian
MDA-MB-231 breast = tested on: MDA-MB-231 breast
CAKI-1 renal = tested on: CAKI-1 renal
HS 578T breast = tested on: HS 578T breast
COLO 205 colon = tested on: COLO 205 colon
OVCAR-4 ovarian = tested on: OVCAR-4 ovarian
PC-3 prostate = tested on: PC-3 prostate
SNB-75 CNS = tested on: SNB-75 CNS
U251 CNS = tested on: U251 CNS
SN12C renal = tested on: SN12C renal
A549 NSCLC = tested on: A549 NSCLC
TK-10 renal = tested on: TK-10 renal
UACC-62 melanoma = tested on: UACC-62 melanoma

With CCOC(=O)Oc1ccc(C(CNC(C)C)OC(=O)OCC)cc1OC(=O)OCC (stereo not drawn) the TGI (NCI-H522 lung) was > 100 µM, the TGI (MOLT-4 leukemia) was > 100 µM and the TGI (OVCAR-3 ovarian) was > 100 µM. For the same compound, the TGI (SR leukemia) was > 100 µM, the TGI (HCT-116 colon) was > 100 µM and the TGI (MALME-3M melanoma) was > 100 µM. The TGI (SK-MEL-2 melanoma) was > 100 µM, the TGI (HL-60(TB) leukemia) was 98.5 µM and the TGI (UACC-257 melanoma) was > 100 µM. The TGI (HOP-92 NSCLC) was > 100 µM, the TGI (RXF 393 renal) was > 100 µM and the TGI (DU-145 prostate) was > 100 µM. The TGI (T-47D breast) was > 100 µM, the TGI (KM12 colon) was > 100 µM and the TGI (HCT-15 colon) was > 100 µM. The TGI (HT29 colon) was > 100 µM, the TGI (SNB-19 CNS) was > 100 µM and the TGI (MCF7 breast) was > 100 µM. The TGI (SK-OV-3 ovarian) was > 100 µM, the TGI (SK-MEL-5 melanoma) was > 100 µM and the TGI (UO-31 renal) was > 100 µM. The TGI (EKVX NSCLC) was > 100 µM, the TGI (SW-620 colon) was > 100 µM and the TGI (BT-549 breast) was > 100 µM. The TGI (HOP-62 NSCLC) was > 100 µM, the TGI (CCRF-CEM leukemia) was > 100 µM and the TGI (ACHN renal) was > 100 µM. For the same compound, the TGI (SF-268 CNS) was > 100 µM, the TGI (MDA-N) was > 100 µM and the TGI (MDA-MB-435) was > 100 µM. The TGI (IGROV1 ovarian) was > 100 µM, the TGI (786-0 renal) was > 100 µM and the TGI (NCI-H23 lung) was > 100 µM. For the same compound, the TGI (OVCAR-8 ovarian) was > 100 µM, the TGI (HCC-2998 colon) was > 100 µM and the TGI (NCI-H460 lung) was > 100 µM. The TGI (A498 renal) was > 100 µM, the TGI (LOX IMVI melanoma) was > 100 µM and the TGI (SF-539 CNS) was > 100 µM. The TGI (NCI-H226 lung) was > 100 µM, the TGI (K-562 leukemia) was > 100 µM and the TGI (SK-MEL-28 melanoma) was > 100 µM. For the same compound, the TGI (M14 melanoma) was > 100 µM, the TGI (SF-295 CNS) was > 100 µM and the TGI (RPMI-8226 leukemia) was > 100 µM. For the same compound, the TGI (NCI/ADR-RES ovarian) was > 100 µM, the TGI (OVCAR-5 ovarian) was > 100 µM and the TGI (MDA-MB-231 breast) was > 100 µM. The TGI (CAKI-1 renal) was > 100 µM, the TGI (HS 578T breast) was > 100 µM and the TGI (COLO 205 colon) was > 100 µM. The TGI (OVCAR-4 ovarian) was > 100 µM, the TGI (PC-3 prostate) was > 100 µM and the TGI (SNB-75 CNS) was > 100 µM. The TGI (U251 CNS) was > 100 µM, the TGI (SN12C renal) was > 100 µM and the TGI (A549 NSCLC) was > 100 µM. For the same compound, the TGI (TK-10 renal) was > 100 µM and the TGI (UACC-62 melanoma) was > 100 µM.

For C[C@]12OC(=O)[C@]3(O)CC[C@H]4[C@@H](C[C@@H](O)[C@@]5(Cl)CC=CC(=O)[C@]45C)[C@]45OCC6C(=O)O[C@@H]1C[C@@]6(C)[C@H](C4=O)[C@@]32O5 (stereo partly drawn), the TGI (NCI-H522 lung) was 1.14 µM, the TGI (MOLT-4 leukemia) was 17.4 µM and the TGI (OVCAR-3 ovarian) was 6.65 µM. The TGI (SR leukemia) was 14.2 µM, the TGI (HCT-116 colon) was 12 µM and the TGI (MALME-3M melanoma) was 5.04 µM. The TGI (SK-MEL-2 melanoma) was 2.71 µM, the TGI (HL-60(TB) leukemia) was 12.8 µM and the TGI (UACC-257 melanoma) was 8.2 µM. The TGI (HOP-92 NSCLC) was 5.68 µM, the TGI (RXF 393 renal) was 1.04 µM and the TGI (DU-145 prostate) was 24.3 µM. For the same compound, the TGI (T-47D breast) was 23.3 µM, the TGI (KM12 colon) was 8.59 µM and the TGI (HCT-15 colon) was 7.61 µM. For the same compound, the TGI (HT29 colon) was 5.35 µM, the TGI (SNB-19 CNS) was 18.2 µM and the TGI (MCF7 breast) was 4 µM. For the same compound, the TGI (SK-OV-3 ovarian) was 10.9 µM, the TGI (SK-MEL-5 melanoma) was 13.2 µM and the TGI (UO-31 renal) was 2.57 µM. For the same compound, the TGI (EKVX NSCLC) was 4.91 µM, the TGI (SW-620 colon) was 12.6 µM and the TGI (BT-549 breast) was 2.27 µM. The TGI (HOP-62 NSCLC) was 10.3 µM, the TGI (CCRF-CEM leukemia) was 6.69 µM and the TGI (ACHN renal) was 5.9 µM. The TGI (SF-268 CNS) was 7.39 µM, the TGI (MDA-N) was 17 µM and the TGI (MDA-MB-435) was 23.8 µM. It also gave a TGI (IGROV1 ovarian) of 2.74 µM, a TGI (786-0 renal) of 11.3 µM and a TGI (NCI-H23 lung) of 1.83 µM. It also gave a TGI (OVCAR-8 ovarian) of 8.39 µM, a TGI (HCC-2998 colon) of 2.55 µM and a TGI (NCI-H460 lung) of 9.54 µM. It also gave a TGI (A498 renal) of 2.91 µM, a TGI (LOX IMVI melanoma) of 6.46 µM and a TGI (SF-539 CNS) of 1.97 µM. It also gave a TGI (NCI-H226 lung) of 9.37 µM, a TGI (K-562 leukemia) of 23.8 µM and a TGI (SK-MEL-28 melanoma) of 75 µM. The TGI (M14 melanoma) was 2.47 µM, the TGI (SF-295 CNS) was 12.4 µM and the TGI (RPMI-8226 leukemia) was 8.6 µM. The TGI (NCI/ADR-RES ovarian) was 60.6 µM, the TGI (OVCAR-5 ovarian) was 3.23 µM and the TGI (MDA-MB-231 breast) was 28.6 µM. The TGI (CAKI-1 renal) was 4.03 µM, the TGI (HS 578T breast) was 44.5 µM and the TGI (COLO 205 colon) was 17.1 µM. The TGI (OVCAR-4 ovarian) was 8.63 µM, the TGI (PC-3 prostate) was 8.71 µM and the TGI (SNB-75 CNS) was 19.6 µM. It also gave a TGI (U251 CNS) of 15 µM, a TGI (SN12C renal) of 19.3 µM and a TGI (A549 NSCLC) of 75 µM. The TGI (TK-10 renal) was 7.18 µM and the TGI (UACC-62 melanoma) was 4.2 µM.
